In brackets after ≈: the same amount, converted by molar mass.
How the values were obtained:
Pseudomonas aeruginosa = assay: Antibacterial activity against Pseudomonas aeruginosa by twofold serial dilution method; format: functional
Klebsiella pneumoniae = assay: Antibacterial activity against Klebsiella pneumoniae by twofold serial dilution method; format: functional
Candida = assay: Antifungal activity against Candida 51 by twofold serial dilution method; format: functional
Staphylococcus aureus = assay: Antibacterial activity against Staphylococcus aureus by twofold serial dilution method; format: functional
Candida albicans = assay: Antifungal activity against Candida albicans by twofold serial dilution method; format: functional
Escherichia coli = assay: Antibacterial activity against Escherichia coli by twofold serial dilution method; format: functional
Aspergillus flavus = assay: Antifungal activity against Aspergillus flavus by twofold serial dilution method; format: functional
Aspergillus niger = assay: Antifungal activity against Aspergillus niger by twofold serial dilution method; format: functional
Rhizopus = assay: Antifungal activity against Rhizopus sp. by twofold serial dilution method; format: functional
Salmonella enterica = assay: Antibacterial activity against Salmonella typhi by twofold serial dilution method; format: functional, Salmonella enterica subsp. enterica serovar Typhi

SMILES | MIC (Pseudomonas aeruginosa) [µg/mL] | MIC (Klebsiella pneumoniae) [µg/mL] | MIC (Candida) [µg/mL] | MIC (Staphylococcus aureus) [µg/mL] | MIC (Candida albicans) [µg/mL] | MIC (Escherichia coli) [µg/mL] | MIC (Aspergillus flavus) [µg/mL] | MIC (Aspergillus niger) [µg/mL] | MIC (Rhizopus) [µg/mL] | MIC (Salmonella enterica) [µg/mL]
c1ccc(CON=C2C3C(c4ccccc4)NC(c4ccccc4)C2C(c2ccccc2)NC3c2ccccc2)cc1 (stereo unspecified) | 100 (≈ 182 µM) | > 200 | > 200 | 200 (≈ 364 µM) | 100 (≈ 182 µM) | 100 (≈ 182 µM) | 200 (≈ 364 µM) | 100 (≈ 182 µM) | 200 (≈ 364 µM) | 
Fc1cccc(C2NC(c3cccc(F)c3)C3C(=NOCc4ccccc4)C2C(c2cccc(F)c2)NC3c2cccc(F)c2)c1 (stereo unspecified) | 12.5 (≈ 20.1 µM) | 50 (≈ 80.4 µM) | 50 (≈ 80.4 µM) | 12.5 (≈ 20.1 µM) | 25 (≈ 40.2 µM) | 25 (≈ 40.2 µM) | 25 (≈ 40.2 µM) | 50 (≈ 80.4 µM) | 50 (≈ 80.4 µM) | 
Fc1ccc(C2NC(c3ccc(F)cc3)C3C(=NOCc4ccccc4)C2C(c2ccc(F)cc2)NC3c2ccc(F)cc2)cc1 (stereo unspecified) | 6.25 (≈ 10.1 µM) | 25 (≈ 40.2 µM) | 25 (≈ 40.2 µM) | 12.5 (≈ 20.1 µM) | 12.5 (≈ 20.1 µM) | 12.5 (≈ 20.1 µM) | 50 (≈ 80.4 µM) | 25 (≈ 40.2 µM) | 12.5 (≈ 20.1 µM) | 
Clc1ccc(C2NC(c3ccc(Cl)cc3)C3C(=NOCc4ccccc4)C2C(c2ccc(Cl)cc2)NC3c2ccc(Cl)cc2)cc1 (stereo unspecified) | 6.25 (≈ 9.09 µM) | 50 (≈ 72.7 µM) | 50 (≈ 72.7 µM) | 25 (≈ 36.4 µM) | 12.5 (≈ 18.2 µM) | 50 (≈ 72.7 µM) | 12.5 (≈ 18.2 µM) | 25 (≈ 36.4 µM) | 25 (≈ 36.4 µM) | 
Cc1ccc(C2NC(c3ccc(C)cc3)C3C(=NOCc4ccccc4)C2C(c2ccc(C)cc2)NC3c2ccc(C)cc2)cc1 (stereo unspecified) | 6.25 (≈ 10.3 µM) | 100 (≈ 165 µM) | 50 (≈ 82.5 µM) | 25 (≈ 41.3 µM) | 25 (≈ 41.3 µM) | 25 (≈ 41.3 µM) | 25 (≈ 41.3 µM) | 50 (≈ 82.5 µM) | 50 (≈ 82.5 µM) | 
COc1ccc(C2NC(c3ccc(OC)cc3)C3C(=NOCc4ccccc4)C2C(c2ccc(OC)cc2)NC3c2ccc(OC)cc2)cc1 (stereo unspecified) | 12.5 (≈ 18.7 µM) | 100 (≈ 149 µM) | 100 (≈ 149 µM) | 25 (≈ 37.3 µM) | 50 (≈ 74.6 µM) | 50 (≈ 74.6 µM) | 50 (≈ 74.6 µM) | 25 (≈ 37.3 µM) | 50 (≈ 74.6 µM) | 
CN1C(c2ccc(F)cc2)C2CCCC(C2=NOCc2ccccc2)C1c1ccc(F)cc1 (stereo unspecified) | 12.5 (≈ 28 µM) | 25 (≈ 56 µM) | 25 (≈ 56 µM) | 50 (≈ 112 µM) | 12.5 (≈ 28 µM) | 12.5 (≈ 28 µM) | 50 (≈ 112 µM) | 25 (≈ 56 µM) | 25 (≈ 56 µM) | 25 (≈ 56 µM)
CN1C(c2ccc(Cl)cc2)C2CCCC(C2=NOCc2ccccc2)C1c1ccc(Cl)cc1 (stereo unspecified) | 12.5 (≈ 26.1 µM) | 50 (≈ 104 µM) | 12.5 (≈ 26.1 µM) | 12.5 (≈ 26.1 µM) | 25 (≈ 52.1 µM) | 50 (≈ 104 µM) | 100 (≈ 209 µM) | 12.5 (≈ 26.1 µM) | 12.5 (≈ 26.1 µM) | 25 (≈ 52.1 µM)
COc1ccc(C2C3CCCC(C3=NOCc3ccccc3)C(c3ccc(OC)cc3)N2C)cc1 (stereo unspecified) | 25 (≈ 53.1 µM) | 100 (≈ 212 µM) | 50 (≈ 106 µM) | 50 (≈ 106 µM) | 25 (≈ 53.1 µM) | 25 (≈ 53.1 µM) | 100 (≈ 212 µM) | 25 (≈ 53.1 µM) | 50 (≈ 106 µM) | 50 (≈ 106 µM)
Cc1ccc(C2C3CCCC(C3=NOCc3ccccc3)C(c3ccc(C)cc3)N2C)cc1 (stereo unspecified) | 25 (≈ 57 µM) | 100 (≈ 228 µM) | 50 (≈ 114 µM) | 25 (≈ 57 µM) | 50 (≈ 114 µM) | 100 (≈ 228 µM) | 25 (≈ 57 µM) | 100 (≈ 228 µM) | 50 (≈ 114 µM) | 50 (≈ 114 µM)
Clc1ccccc1C1NC(c2ccccc2Cl)C2CCCC1C2=NOCc1ccccc1 (stereo unspecified) | 6.25 (≈ 13.4 µM) | 50 (≈ 107 µM) | 6.25 (≈ 13.4 µM) | 12.5 (≈ 26.9 µM) | 12.5 (≈ 26.9 µM) | 12.5 (≈ 26.9 µM) | 12.5 (≈ 26.9 µM) | 50 (≈ 107 µM) | 50 (≈ 107 µM) | 50 (≈ 107 µM)
c1ccc(CON=C2C3CCCC2C(c2ccccc2)NC3c2ccccc2)cc1 (stereo unspecified) | 200 (≈ 504 µM) | > 200 | 200 (≈ 504 µM) | > 200 | 100 (≈ 252 µM) | 100 (≈ 252 µM) | 200 (≈ 504 µM) | > 200 | > 200 | 200 (≈ 504 µM)
Fc1cccc(C2NC(c3cccc(F)c3)C3CCCC2C3=NOCc2ccccc2)c1 (stereo unspecified) | 25 (≈ 57.8 µM) | 100 (≈ 231 µM) | 200 (≈ 462 µM) | 100 (≈ 231 µM) | 50 (≈ 116 µM) | 25 (≈ 57.8 µM) | 100 (≈ 231 µM) | 100 (≈ 231 µM) | 50 (≈ 116 µM) | 100 (≈ 231 µM)
Fc1ccc(C2NC(c3ccc(F)cc3)C3CCCC2C3=NOCc2ccccc2)cc1 (stereo unspecified) | 25 (≈ 57.8 µM) | 50 (≈ 116 µM) | 100 (≈ 231 µM) | 100 (≈ 231 µM) | 25 (≈ 57.8 µM) | 25 (≈ 57.8 µM) | 100 (≈ 231 µM) | 50 (≈ 116 µM) | 50 (≈ 116 µM) | 50 (≈ 116 µM)
Clc1ccc(C2NC(c3ccc(Cl)cc3)C3CCCC2C3=NOCc2ccccc2)cc1 (stereo unspecified) | 12.5 (≈ 26.9 µM) | 100 (≈ 215 µM) | 50 (≈ 107 µM) | 25 (≈ 53.7 µM) | 25 (≈ 53.7 µM) | 50 (≈ 107 µM) | 50 (≈ 107 µM) | 25 (≈ 53.7 µM) | 12.5 (≈ 26.9 µM) | 25 (≈ 53.7 µM)
Cc1ccc(C2NC(c3ccc(C)cc3)C3CCCC2C3=NOCc2ccccc2)cc1 (stereo unspecified) | 25 (≈ 58.9 µM) | 200 (≈ 471 µM) | 100 (≈ 236 µM) | 25 (≈ 58.9 µM) | 50 (≈ 118 µM) | 100 (≈ 236 µM) | 100 (≈ 236 µM) | 100 (≈ 236 µM) | 25 (≈ 58.9 µM) | 100 (≈ 236 µM)
COc1ccc(C2NC(c3ccc(OC)cc3)C3CCCC2C3=NOCc2ccccc2)cc1 (stereo unspecified) | 50 (≈ 110 µM) | 100 (≈ 219 µM) | 50 (≈ 110 µM) | 100 (≈ 219 µM) | 50 (≈ 110 µM) | 50 (≈ 110 µM) | 100 (≈ 219 µM) | 100 (≈ 219 µM) | 50 (≈ 110 µM) | 50 (≈ 110 µM)
CN1C(c2ccccc2)C2CCCC(C2=NOCc2ccccc2)C1c1ccccc1 (stereo unspecified) | 100 (≈ 244 µM) | 200 (≈ 487 µM) | 200 (≈ 487 µM) | 200 (≈ 487 µM) | 50 (≈ 122 µM) | 100 (≈ 244 µM) | > 200 | 200 (≈ 487 µM) | 50 (≈ 122 µM) | 100 (≈ 244 µM)
C[C@@H]1[C@H](O)[C@@H](C)/C=C/C=C/C=C/C=C/C=C/C=C/C=C/[C@H](O[C@@H]2O[C@H](C)[C@@H](O)[C@H](N)[C@@H]2O)C[C@@H]2O[C@](O)(C[C@@H](O)C[C@@H](O)[C@H](O)CC[C@@H](O)C[C@@H](O)CC(=O)O[C@H]1C)C[C@H](O)[C@H]2C(=O)O [AMPHOTERICIN B] |  |  | 25 (≈ 27.1 µM) |  | 25 (≈ 27.1 µM) |  | 50 (≈ 54.1 µM) | 50 (≈ 54.1 µM) | 25 (≈ 27.1 µM) | 
O=C(O)c1cn(C2CC2)c2cc(N3CCNCC3)c(F)cc2c1=O [CIPROFLOXACIN] |  |  |  |  |  | 25 (≈ 75.4 µM) |  |  |  | 50 (≈ 151 µM)

Reference: ChEMBL document CHEMBL1153710, “Synthesis, stereochemistry and antimicrobial studies of novel oxime ethers of aza/diazabicycles” (2009)
